Measured values: US20210269434A1, “TRICYCLIC COMPOUNDS AS INHIBITORS OF KRAS” (Incyte Corporation, priority 2020, published 2021)

Assays:
[1] = molecular target: KRAS G12C (Homo sapiens, UniProt P01116, G12C); experiment: GDP-GTP exchange assay (KRAS_G12C exchange); assay type: biochemical; conditions: bodipy-GDP loaded KRAS G12C 2.5 nM, SOS1 150 nM, GppNHp; 2 hours pre-incubation, 2 hours reaction; read-out: G12C_exchange
Summary of the method: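 Fluorescence exchange of bodipy-GDP for GppNHp, SOS1-driven, read at 485/520 nm; IC50 from four-parameter variable-slope fit. Both mutants used 2.5 nM final labelled protein and a 2 h compound pre-incubation. G12C reaction had 500 uM GppNHp and 150 nM SOS1 for 2 h; G12D ran 4 h.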

[2] = system: MIA PaCa-2 (KRAS G12C) cells; experiment: Cellular pERK HTRF assay (KRAS_G12C pERK); assay type: cell-based, human; conditions: Homo sapiens, MIA PaCa-2, 4 hours incubation, read-out: G12C_pERK
Summary of the method: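 Phospho-ERK1/2 HTRF readout (665 and 620 nm) in lysed MIA PaCa-2 cells, antibodies incubated overnight at room temperature. Cells seeded the day before and treated with G12C compounds for 4 h at 37 °C; IC50 fitted to percent inhibition against log inhibitor concentration.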

KRAS G12C, sequence (P01116 1-188 isoform P01116-2 G12C): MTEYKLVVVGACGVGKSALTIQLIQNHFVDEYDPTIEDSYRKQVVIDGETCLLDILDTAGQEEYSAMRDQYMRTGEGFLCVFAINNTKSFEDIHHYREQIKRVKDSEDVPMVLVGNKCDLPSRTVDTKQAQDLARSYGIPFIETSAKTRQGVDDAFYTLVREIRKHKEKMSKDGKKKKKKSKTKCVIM

| SMILES | IC50 [1] [nM] | IC50 [2] [nM] |
| --- | --- | --- |
| C=CC(=O)N1CC[C@H](n2cnc3c(N4CC(N(C)C)C4)nc4c(F)c(-c5c(OC)ccc6ccccc56)c(Cl)cc4c32)C[C@H]1CC#N [Example 66, 2-((2S,4S)-1-acryloyl-4-(8-chloro-4-(3-(dimethylamino)azetidin-1-yl)-6-fluoro-7-(2-methoxynaphthalen-1-yl)-1H-imidazo[4,5-c]quinolin-1-yl)piperidin-2-yl)acetonitrile] | ≤ 100 | ≤ 100 |
| Cc1c(Cl)cc2[nH]ncc2c1-c1c(Cl)cc2c(nc(N3CC(N(C)C)C3)c3ncn([C@H]4CCN(C(=O)/C=C/CN(C)C)[C@H](CC#N)C4)c32)c1F [Example 176, 2-((2S,4S)-4-(8-chloro-7-(6-chloro-5-methyl-1H-indazol-4-yl)-4-(3-(dimethylamino)-azetidin-1-yl)-6-fluoro-1H-imidazo[4,5-c]quinolin-1-yl)-1-((E)-4-(dimethylamino)but-2-enoyl)piperidin-2-yl)acetonitrile] | ≤ 100 | ≤ 100 |
| C=CC(=O)N1CC[C@H](n2nnc3c(N4CC(C)(N(C)C)C4)nc4c(F)c(-c5cccc(C)c5Cl)c(C)cc4c32)C[C@H]1CC#N [Example 255, 2-((2S,4S)-1-acryloyl-4-(7-(2-chloro-3-methylphenyl)-4-(3-(dimethylamino)-3-methylazetidin-1-yl)-6-fluoro-8-methyl-1H-[1,2,3]triazolo[4,5-c]quinolin-1-yl)piperidin-2-yl)acetonitrile] | ≤ 100 | ≤ 100 |
| COC/C=C/C(=O)N1CC[C@H](n2nnc3c(OC[C@@H]4CCCN4C)nc4c(F)c(-c5cccc(C)c5C)c(C)cc4c32)C[C@H]1CC#N [Example 140, 2-((2S,4S)-4-(7-(2,3-dimethylphenyl)-6-fluoro-8-methyl-4-(((S)-1-methylpyrrolidin-2-yl)methoxy)-1H-[1,2,3]triazolo[4,5-c]quinolin-1-yl)-1-((E)-4-methoxybut-2-enoyl)piperidin-2-yl)acetonitrile] | ≤ 100 | ≤ 100 |
| C=CC(=O)N1CC[C@H](n2nnc3c(O[C@@H](C)CN(C)C)nc4c(F)c(-c5ccc(F)cc5)c(Cl)cc4c32)C[C@H]1CC#N [Example 128, 2-((2S,4S)-1-acryloyl-4-(8-chloro-4-(((S)-1-(dimethylamino)propan-2-yl)oxy)-6-fluoro-7-(4-fluorophenyl)-1H-[1,2,3]triazolo[4,5-c]quinolin-1-yl)piperidin-2-yl)acetonitrile] | ≤ 100 | ≤ 100 |
| C=CC(=O)N1CCC(n2cnc3c(OC[C@@H]4CCCN4C)nc4c(F)c(-c5cccc(F)c5C)c(Cl)cc4c32)CC1CC#N (mixture of isomers) [Example 42, 2-(1-acryloyl-4-(8-chloro-6-fluoro-7-(3-fluoro-2-methylphenyl)-4-(((S)-1-methylpyrrolidin-2-yl)methoxy)-1H-imidazo[4,5-c]quinolin-1-yl)piperidin-2-yl)acetonitrile] | ≤ 100 | ≤ 100 |
| Cc1cc2c(nc(N3CC(C)(N(C)C)C3)c3nnn([C@H]4CCN(C(=O)/C=C/C(F)F)[C@H](CC#N)C4)c32)c(F)c1-c1cccc(Cl)c1C [Example 102, 2-((2S,4S)-4-(7-(3-chloro-2-methylphenyl)-4-(3-(dimethylamino)-3-methylazetidin-1-yl)-6-fluoro-8-methyl-1H-[1,2,3]triazolo-[4,5-c]quinolin-1-yl)-1-((E)-4,4-difluorobut-2-enoyl)-piperidin-2-yl)acetonitrile] | ≤ 100 | ≤ 100 |
| C=CC(=O)N1CC[C@H](n2cnc3c(N4CC(N(C)C)C4)nc4c(F)c(-c5cccc(F)c5C)c(Cl)cc4c32)C[C@H]1CC#N [Example 18, 2-((2S,4S)-1-acryloyl-4-(8-chloro-4-(3-(dimethylamino)azetidin-1-yl)-6-fluoro-7-(3-fluoro-2-methylphenyl)-1H-imidazo[4,5-c]quinolin-1-yl)piperidin-2-yl)acetonitrile] | ≤ 100 | ≤ 100 |
| C=CC(=O)N1CC[C@H](n2nnc3c(N4CC(N(C)C)C4)nc4c(F)c(-c5ccccc5C5CC5)c(Cl)cc4c32)C[C@H]1CC#N [Example 117, 2-((2S,4S)-1-acryloyl-4-(8-chloro-7-(2-cyclopropylphenyl)-4-(3-(dimethylamino)azetidin-1-yl)-6-fluoro-1H-[1,2,3]triazolo[4,5-c]quinolin-1-yl)piperidin-2-yl)acetonitrile] | ≤ 100 | ≤ 100 |
| C=CC(=O)N1CC[C@H](n2nnc3c(OC[C@@H]4CCCN4C)nc4c(Cl)c(-c5cccc(Cl)c5C)c(Cl)cc4c32)C[C@H]1CC#N [Example 287, 2-((2S,4S)-1-acryloyl-4-(6,8-dichloro-7-(3-chloro-2-methylphenyl)-4-(((S)-1-methylpyrrolidin-2-yl)methoxy)-1H-[1,2,3]triazolo[4,5-c]quinolin-1-yl)piperidin-2-yl)acetonitrile] | ≤ 100 | ≤ 100 |
| CC#CC(=O)N1CC[C@H](n2nnc3c(OC[C@@H]4CCCN4C)nc4c(F)c(-c5cccc(Cl)c5C)c(C)cc4c32)C[C@H]1CC#N [Example 99, 2-((2S,4S)-1-(but-2-ynoyl)-4-(7-(3-chloro-2-methylphenyl)-6-fluoro-8-methyl-4-(((S)-1-methylpyrrolidin-2-yl)methoxy)-1H-[1,2,3]triazolo[4,5-c]quinolin-1-yl)piperidin-2-yl)acetonitrile] | ≤ 100 | ≤ 100 |

Next, values leading:

| IC50 [1] [nM] | IC50 [2] [nM] | SMILES |
| --- | --- | --- |
| ≤ 100 | ≤ 100 | Cc1cc2c(nc(OC[C@@H]3CCCN3C)c3nnn([C@H]4CCN(C(=O)/C=C/C(F)F)[C@H](CC#N)C4)c32)c(F)c1-c1ccccc1C(F)(F)F [Example 161a, 2-((2S,4S)-1-((E)-4,4-difluorobut-2-enoyl)-4-(6-fluoro-8-methyl-4-(((S)-1-methylpyrrolidin-2-yl)methoxy)-7-(2-(trifluoromethyl)phenyl)-1H-[1,2,3]triazolo[4,5-c]quinolin-1-yl)piperidin-2-yl)acetonitrile] |
| ≤ 100 | ≤ 100 | C=CC(=O)N1CC[C@H](n2nnc3c(OC[C@@H]4CCCN4C)nc4c(Cl)c(-c5ccc(F)c6cccnc56)c(Cl)cc4c32)C[C@H]1CC#N (single isomer, unassigned) [Example 276a] |
| ≤ 100 | ≤ 100 | C=CC(=O)N1C[C@H](C)[C@@H](n2cnc3c(OC[C@@H]4CCCN4C)nc4c(F)c(-c5cc(O)cc6ccccc56)c(Cl)cc4c32)C1 (single isomer, unassigned) [Example 29b] |
| ≤ 100 | ≤ 100 | C=CC(=O)N1CC[C@H](n2cnc3c(N4CC(N(C)C)C4)nc4c(F)c(-c5cccc6cnccc56)c(Cl)cc4c32)C[C@H]1CC#N (single isomer, unassigned) [Example 70a] |
| ≤ 100 | ≤ 100 | C=CC(=O)N1CC[C@H](n2cnc3c(OC[C@H]4CCCN4C)nc4c(F)c(-c5cccc(Cl)c5C)c(Cl)cc4c32)C[C@H]1CC#N (single isomer, unassigned) [Example 119a] |
| ≤ 100 | ≤ 100 | C=CC(=O)N1CCC(n2cnc3c(N4CC(N(C)CC)C4)nc4c(F)c(-c5cccc6cccc(Cl)c56)c(C)cc4c32)C[C@H]1CC#N (single isomer, unassigned) [Example 223a] |
